Measurements as given in patent US11919886B2, “4,9-dioxo-4,9-dihydronaphtho[2,3-B]furan-3-carboxamide derivatives and uses thereof for treating proliferative diseases and infectious diseases” (Academia Sinica, priority 2016, dated 2024).
Read-outs that look alike come from different tables or passages of the source.

What was measured:
Assay type in all cases: cell-based
Staphylococcus aureus [1] = assay: MIC, broth micro dilution method; conditions: MRSA
Enterococcus faecalis = assay: MIC, broth micro dilution method
Shigella sonnei = assay: MIC, broth micro dilution method
Klebsiella pneumoniae = assay: MIC, broth micro dilution method
Escherichia coli = assay: Bacterial growth by Alamar Blue in Muller-Hinton broth; conditions: 16-24 hours, read-out: % of the activities in the presence of ~10 μM compound, Escherichia coli
Description: (§1) Compound 1 and its analogues shown in Table 6 below were tested for their activities on cancer cells and bacterial cells using assays described herein. H1975, MDA-MB231, and MCF7 cells were incubated in the presence of the compounds in cell growth medium containing 10% fetal bovine serum for two days in a mammalian cell culture incubatoe. Cell viability were monitored by using Cell-TiterGlo. Staphylococcus aureus and Escherichia coli were incubated in the presence of the compounds in Muller-Hinton broth for 16-24 hours in a 37° C. incubator. Bacterial growth was monitored by using Alamar Blue (Invitrogen).

Staphylococcus aureus [2] = assay: as above
Description: as §1

Cc1oc2c(c1C(=O)NCCCn1ccnc1)C(=O)c1ccccc1C2=O [Compound 1, N-(3-(1H-Imidazol-1-yl)propyl)-2-methyl-4,9-dioxo-4,9-dihydronaphtho [2,3-b]furan-3-carboxamide]
32 µg/mL: MIC (Enterococcus faecalis; read-out: MIC (μg/ml) 100%, strain ATCC19433)
38.1%: activity at 10 µM (Staphylococcus aureus [2]; ~10 μM, 16-24 hours, Alamar Blue, read-out: % of the activities in the presence of ~10 μM compound, Staphylococcus aureus)
2 µg/mL: MIC (Staphylococcus aureus [1]; read-out: MIC (μg/ml) 100%, strain NTUH-4400, MRSA (SCCmec II, ST5, FA-R), clinical isolate) | MIC (Staphylococcus aureus [2])
0.5 µg/mL: MIC (Staphylococcus aureus [1]; strain NTUH-1-2868, MRSA (SCCmec III, ST239, FA-R), clinical isolate, read-out: MIC (μg/ml) 50%) | MIC (Staphylococcus aureus [1]; strain NTUH-104-2, MRSA (SCCmec VT, ST45), clinical isolate, read-out: MIC (μg/ml) 50%) | MIC (Staphylococcus aureus [1]; strain NTUH-406-2, MRSA (SCCmec IV, spa type t008), clinical isolate, read-out: MIC (μg/ml) 50%) | MIC (Staphylococcus aureus [1]; strain NTUH-2417, MRSA (SCCmec III, SXT-S), clinical isolate, read-out: MIC (μg/ml) 50%) | MIC (Staphylococcus aureus [1]; strain NTUH-9383, MRSA (SCCmec III, ST239, FA-R), clinical isolate, read-out: MIC (μg/ml) 50%) | MIC (Staphylococcus aureus [1]; strain TSHR17, MRSA (SCCmec VT), read-out: MIC (μg/ml) 50%)
> 32 µg/mL: MIC (Shigella sonnei; read-out: MIC (μg/ml) 100%, strain ATCC9290, gram negative) | MIC (Shigella sonnei; strain ATCC9290, gram negative, read-out: MIC (μg/ml) 50%) | MIC (Klebsiella pneumoniae; read-out: MIC (μg/ml) 100%, strain ATCC700603, gram negative) | MIC (Klebsiella pneumoniae; strain ATCC700603, gram negative, read-out: MIC (μg/ml) 50%)
16 µg/mL: MIC (Enterococcus faecalis; strain ATCC19433, read-out: MIC (μg/ml) 50%)
1 µg/mL: MIC (Staphylococcus aureus [1]; read-out: MIC (μg/ml) 100%, strain NTUH-2417, MRSA (SCCmec III, SXT-S), clinical isolate) | MIC (Staphylococcus aureus [1]; read-out: MIC (μg/ml) 100%, strain NTUH-9383, MRSA (SCCmec III, ST239, FA-R), clinical isolate) | MIC (Staphylococcus aureus [1]; strain NTUH-560, MRSA (SCCmec II, GM-S), clinical isolate, read-out: MIC (μg/ml) 50%) | MIC (Staphylococcus aureus [1]; strain NTUH-2102, MRSA (SCCmec II, ST5, FA-S), clinical isolate, read-out: MIC (μg/ml) 50%) | MIC (Staphylococcus aureus [1]; strain NTUH-2643, MRSA (SCCmec IV, spa type to 15), clinical isolate, read-out: MIC (μg/ml) 50%) | MIC (Staphylococcus aureus [1]; strain NTUH-2967, MRSA (SCCmec VT, ST1), clinical isolate, read-out: MIC (μg/ml) 50%) | MIC (Staphylococcus aureus [1]; strain NTUH-4400, MRSA (SCCmec II, ST5, FA-R), clinical isolate, read-out: MIC (μg/ml) 50%) | MIC (Staphylococcus aureus [1]; strain NTUH-4578, MRSA (SCCmec IV, ST59), clinical isolate, read-out: MIC (μg/ml) 50%) | MIC (Staphylococcus aureus [1]; strain NTUH-8038, MRSA (SCCmec IV, spa type t189), clinical isolate, read-out: MIC (μg/ml) 50%) | MIC (Staphylococcus aureus [1]; strain PM1, MRSA (SCCmec VT, ST59), clinical isolate, read-out: MIC (μg/ml) 50%)
4 µg/mL: MIC (Staphylococcus aureus [1]; read-out: MIC (μg/ml) 100%, strain NTUH-2643, MRSA (SCCmec IV, spa type to 15), clinical isolate) | MIC (Staphylococcus aureus [1]; read-out: MIC (μg/ml) 100%, strain NTUH-2967, MRSA (SCCmec VT, ST1), clinical isolate) | MIC (Staphylococcus aureus [1]; read-out: MIC (μg/ml) 100%, strain NTUH-4578, MRSA (SCCmec IV, ST59), clinical isolate) | MIC (Staphylococcus aureus [1]; read-out: MIC (μg/ml) 100%, strain NTUH-8038, MRSA (SCCmec IV, spa type t189), clinical isolate) | MIC (Staphylococcus aureus [1]; read-out: MIC (μg/ml) 100%, strain PM1, MRSA (SCCmec VT, ST59), clinical isolate) | MIC (Staphylococcus aureus [1]; read-out: MIC (μg/ml) 100%, strain TSHR17, MRSA (SCCmec VT))
> 100%: activity at 10 µM (Escherichia coli)
